Experimental data from US12522587B2, “Cancer treatments targeting cancer stem cells” (Remedy Plan, Inc., priority 2018, dated 2026).
pIC50: −log10 of the molar value.

Assays:
oct4 = experiment: RT-qPCR of oct4 RNA in AGS cells; format: cell-based, human; settings: 10 μM, 4 days, FIG. 2
Procedure: Approximately 2.5×10^5 AGS cells were treated for 4 days with DMSO alone (no drug treatment) or 10 μM compound I-1 in DMSO. Cells were lysed and RNA was extracted using Zymo's Quick RNA-Microprep following manufacturer instructions. 100 ng of RNA were reverse transcribed using MuLV reverse transcriptase (New England Biolabs, USA). qPCR was performed using 2 ul of cDNA and Luna Universal qPCR Master Mix from NEB in a Stratagene Mx3005P.
AGS gastric cancer cells were treated with either DMSO alone (no drug treatment) or compound I-1 at […] for 4 days. RNA was isolated and oct4 RNA levels were measured by RT-qPCR.

AGS cells = experiment: Kinetic cell viability with AGS cells (RealTime Glo MT); format: cell-based, human
Procedure: Approximately 50,000 AGS cells were seeded per well of a 96-well plate in media containing NanoLuc Luciferase and MT Cell Viability Substrate provided on the RealTime Glo MT Cell Viability Assay Kit from PROMEGA. Four hours after plating, cells were treated with DMSO alone (no drug treatment) or decreasing concentrations of a compound of the disclosure to achieve final concentrations of 20, 10, 5, and 2.5 μM. Luminescence Units (RLU) were measured every 16-20 hours using a SynergyHTX plate reader with a 30 msec integration (see FIG. 1).
Approximately 50,000 AGS cells were seeded per well of a 96-well plate in media containing NanoLuc Luciferase and MT Cell Viability Substrate provided on the RealTime Glo MT Cell Viability Assay Kit from PROMEGA. Four hours after plating, cells were treated with DMSO alone (no drug treatment) or decreasing concentrations of compound I-1 to achieve final concentrations of 20, 10, 5, and 2.5 μM. Luminescence Units (RLU) were measured every 16-20 hrs using a SynergyHTX plate reader with a 30 msec integration.
AGS gastric cancer cells were treated with either DMSO alone (no drug treatment) or various concentrations of compound I-1 (including 2.5 µM, 5 µM, 10 µM, and 20 µM) for 4 days. Cell health and replication were measured using REALTIME-GLO MT Cell Viability Assay, which provided a luminescence readout as a measurement of cell number and health.

[1] = Pharmacokinetic profile after oral gavage in mice; format: in vivo; settings: male, CD1, mouse, single PO 100 mg/kg, plasma over 24 hours
Procedure: The pharmacokinetic profile of compound I-1 was determined after oral gavage of 100 mg/kg in male CD1 mice (n=3), using freshly prepared formulations. Approximately 0.025 mL of blood were collected from the dorsal metatarsal vein at 15 min, 30 min, and 1, 2, 4, 6, 8, and 24 hr post dosing. Plasma concentrations of the drug were analyzed by LC/MS/MS method.
Following a single PO (oral) injection in mice at 100 mg/kg, the concentration of compound I-1 was measured in the plasma over 24 hours. The half life was approximately 6 hours.

A549 = experiment: Growth inhibition of cancer cell lines; format: cell-based; settings: Homo sapiens; A549, lung adenocarcinoma; 50% inhibition of growth
From the text: (§1) We tested the ability of compound I-1 to inhibit the growth of 12 additional cell lines, derived from a variety of different types of human cancer.

Colo205 = experiment: Growth inhibition of cancer cell lines; format: cell-based; settings: Homo sapiens, COLO 205; Colo205, Dukes' type D, colorectal adenocarcinoma; 50% inhibition of growth
From the text: as §1

DLD-1 = experiment: Growth inhibition of cancer cell lines; format: cell-based; settings: Homo sapiens; DLD-1, Dukes' type C, colorectal adenocarcinoma; 50% inhibition of growth
From the text: as §1

IGROV-1 = experiment: Growth inhibition of cancer cell lines; format: cell-based; settings: Homo sapiens; IGROV-1, ovarian adenocarcinoma; 50% inhibition of growth
From the text: as §1

MCF-7 = experiment: Growth inhibition of cancer cell lines; format: cell-based; settings: Homo sapiens, MCF7; MCF-7, breast cancer; 50% inhibition of growth
From the text: as §1

MiaPaca-2 = experiment: Growth inhibition of cancer cell lines; format: cell-based; settings: Homo sapiens, MIA PaCa-2; MiaPaca-2, pancreatic carcinoma; 50% inhibition of growth
From the text: as §1

NCI-H69 = experiment: Growth inhibition of cancer cell lines; format: cell-based; settings: Homo sapiens; NCI-H69, small cell lung cancer; 50% inhibition of growth
From the text: as §1

PC-3 = experiment: Growth inhibition of cancer cell lines; format: cell-based; settings: Homo sapiens; PC-3, prostate adenocarcinoma; 50% inhibition of growth
From the text: as §1

HepG2 = experiment: Growth inhibition of additional cancer cell lines; format: cell-based; settings: Homo sapiens; HepG2, Liver; 50% inhibition of growth
From the text: (§2) We tested the ability of compound I-1 to inhibit the growth of 11 additional cell lines, derived from a variety of different types of human cancer.

MM.1R = experiment: Growth inhibition of additional cancer cell lines; format: cell-based; settings: Homo sapiens, Hematopoietic-B-cell myeloma, 50% inhibition of growth
From the text: as §2

NALM-6 = experiment: Growth inhibition of additional cancer cell lines; format: cell-based; settings: Homo sapiens; NALM-6, Heme (B-cell precursor leukemia, ALL); 50% inhibition of growth
From the text: as §2

NCI-H520 = experiment: Growth inhibition of additional cancer cell lines; format: cell-based; settings: Homo sapiens; NCI-H520, NSCLC; 50% inhibition of growth
From the text: as §2

RL95-2 = experiment: Growth inhibition of additional cancer cell lines; format: cell-based; settings: Homo sapiens; RL95-2, Uterus/endometrium; 50% inhibition of growth
From the text: as §2

Raji = experiment: Growth inhibition of additional cancer cell lines; format: cell-based; settings: Homo sapiens, Heme (Burkitt's lymphoma), 50% inhibition of growth
From the text: as §2

Ramos (RA 1) = experiment: Growth inhibition of additional cancer cell lines; format: cell-based; settings: Homo sapiens, Hematopoietic-Burkitt's B-cell lymphoma, 50% inhibition of growth
From the text: as §2

SR = experiment: Growth inhibition of additional cancer cell lines; format: cell-based; settings: Homo sapiens, Heme (large cell immunoblastic lymphoma-unknown B or T cell origin), 50% inhibition of growth
From the text: as §2

SU-DHL-10 = experiment: Growth inhibition of additional cancer cell lines; format: cell-based; settings: Homo sapiens, SU-DHL10; SU-DHL-10, Hematopoietic-large B-cell lymphoma; 50% inhibition of growth
From the text: as §2

SW620 = experiment: Growth inhibition of additional cancer cell lines; format: cell-based; settings: Homo sapiens, SW-620; SW620, Colon; 50% inhibition of growth
From the text: as §2

Thp1 = experiment: Growth inhibition of additional cancer cell lines; format: cell-based; settings: Homo sapiens, THP-1; Thp1, Heme (acute monocytic leukemia); 50% inhibition of growth
From the text: as §2

SMILES: CCC(=O)N1CCc2cc(-c3ccc(C(=O)NCc4cccnc4)cc3)ccc21 [Compound I-1]
- oct4 expression in gastric cancer cells (oct4): decreased
- growth of gastric cancer cells (AGS cells; AGS cells, 2.5-20 μM, 4 days, FIG. 5): inhibited growth
- populations of embryonic-like gastric cell populations in gastric cancer (AGS cells; AGS cells, 20, 10, 5 and 2.5 μM, FIG. 1): depleted
- half-life [1]: ~6 h
- pIC50 (A549): < 5.00
- pIC50 (Colo205): < 5.00
- pIC50 (DLD-1): < 5.00
- pIC50 (IGROV-1): 5.34
- pIC50 (MCF-7): 5.22
- pIC50 (MiaPaca-2): 5.47
- pIC50 (NCI-H69): 5.82
- pIC50 (PC-3): 5.26
- pIC50 (HepG2): 5.40
- pIC50 (MM.1R): 5.26
- pIC50 (NALM-6): 6.17
- pIC50 (NCI-H520): 5.44
- pIC50 (RL95-2): 5.60
- pIC50 (Raji): 5.60
- pIC50 (Ramos (RA 1)): 5.47
- pIC50 (SR): 6.31
- pIC50 (SU-DHL-10): 5.58
- pIC50 (SW620): 5.55
- pIC50 (Thp1): 5.29
